US20250179059A1 (The Regents of the University of California, priority 2021, published 2025)

Molecular target: T1, human BRD4 bromodomain II (Homo sapiens, UniProt O60885)
T1 construct: human BRD4 bromodomain II [based on Genbank NM_058243, residues 349-460]; host or cells: E. coli
Assay: Bromodomain binding assay (AlphaScreen), BRD4 BDII
Settings: AlphaScreen assay, Table C2; read-out: BRD4 BDII IC50
Method: Bromodomain Binding Assay
The bromodomain binding assay utilizes AlphaScreen technology. Compounds compete with a biotinylated peptide ligand (from histone H4: aa 1-21, K5/K8/K12/K16Ac-biotin) for binding to a hexahistidine (His6)-tagged bromodomain. Peptide binding is detected by fluorescence signal after singlet oxygen energy transfer from peptide-bound AlphaScreen streptavidin-coated donor beads to His6-tagged bromodomain-bound nickel-chelate acceptor beads (PerkinElmer). Briefly, 8 μL 2.5× bromodomain (E. coli expressed, N-terminal His6-tagged human BRD4 bromodomain II [based on Genbank NM_058243, residues 349-460] or N-terminal His6-tagged human BRD4 bromodomain I [residues 44-170]) in reaction buffer (50 mM HEPES [pH 7.5], 100 mM NaCl, 0.05% CHAPS, 0.1% BSA, 1% DMSO) is added to wells of an assay plate (384-well low flange white, flat bottom, polystyrene microplate, Corning #3572; buffer only is added to some wells as a negative control). A compound concentration series (10 concentrations, 3-fold serial dilutions previously prepared in 100% DMSO, or 100% DMSO only negative control) is delivered to the assay plate with an Echo 550 acoustic liquid handler (Labcyte), followed by plate centrifugation and incubation for 30 minutes at room temperature. Then 4 μL 5× biotinylated peptide ligand is added, followed by plate centrifugation and gentle shaking for 30 minutes at room temperature to mix. After this incubation, 4 μL 5× donor beads are added, and the plate is centrifuged, followed by brief gentle shaking to mix. Finally, 4 μL 5× acceptor beads are added, and the plate is centrifuged, followed by gentle shaking for 60 minutes at room temperature in the dark. AlphaScreen signal (excitation/emission: 680 nm/520-620 nm) is detected with an EnSpire multimode plate reader (PerkinElmer). Percentage peptide binding is plotted as a function of concentration, and curve fitting is used to determine competitive compound binding ICsos.

Row | Structure (SMILES) | IC50 [nM]
1 | CCc1cc(-c2cccc(-c3cc(N4CCNCC4)no3)c2O)ccc1NC(C)=O [Example 22, N-(3-Ethyl-2′-hydroxy-3′-(3-(piperazin-1-yl)isoxazol-5-yl)-[1,1′-biphenyl]-4-yl)acetamide 2,2,2-trifluoroacetate] | > 100
2 | CC(=O)Nc1ccc(-c2cccc(-c3cc(N4CCNCC4)no3)c2O)cn1 [Example 76, N-(5-(2-Hydroxy-3-(3-(piperazin-1-yl)isoxazol-5-yl)phenyl)pyridin-2-yl)acetamide 2,2,2-trifluoroacetate] | > 100
3 | CC(=O)Nc1ccc(-c2cccc(-n3cnc(-c4ccc(F)cc4)c3)c2O)cc1 [Example 18, N-(3′-(4-(4-Fluorophenyl)-1H-imidazol-1-yl)-2′-hydroxy-[1,1′-biphenyl]-4-yl)acetamide] | > 100
4 | CC(=O)Nc1ccc(-c2cccc(-c3cccc(F)c3)c2O)cc1F [Example 54, N-(3,3″-Difluoro-2′-hydroxy-[1,1′:3′,1″-terphenyl]-4-yl)acetamide] | > 100
5 | CC(=O)Nc1ccc(-c2cccc(-c3ccncc3)c2O)cc1F [Example 67, N-(3-Fluoro-2′-hydroxy-3′-(pyridin-4-yl)-[1,1′-biphenyl]-4-yl)acetamide] | > 100
6 | CC(=O)Nc1ccc(-c2cccc(-c3cnn(-c4ccccc4)c3)c2O)cc1 [Example 14, N-(2′-Hydroxy-3′-(1-phenyl-1H-pyrazol-4-yl)-[1,1′-biphenyl]-4-yl)acetamide] | > 100
7 | CC(=O)Nc1ccc(-c2cccc(-c3cc(N4CCNCC4)no3)c2O)cc1OC(F)F [Example 26, N-(3-(Difluoromethoxy)-2′-hydroxy-3′-(3-(piperazin-1-yl)isoxazol-5-yl)-[1,1′-biphenyl]-4-yl)acetamide 2,2,2-trifluoroacetate] | > 100
8 | CC(=O)Nc1ccc(-c2cccc(-c3ccc(NC(C)=O)c(OC4CCC4)c3)c2O)cc1F [Example 45, N,N′-(3-Cyclobutoxy-3″-fluoro-2′-hydroxy-[1,1′:3′,1″-terphenyl]-4,4″-diyl)diacetamide] | > 100
9 | COc1cc(-c2cccc(-c3cc(N4CCNCC4)no3)c2O)ccc1NC(C)=O [Example 23, N-(2′-Hydroxy-3-methoxy-3′-(3-(piperazin-1-yl)isoxazol-5-yl)-[1,1′-biphenyl]-4-yl)acetamide 2,2,2-trifluoroacetate] | > 100
10 | CCNC(=O)c1cccc(-c2cccc(-c3ccc(NC(C)=O)c(F)c3)c2O)c1 [Example 93, 4″-Acetamido-N-ethyl-3″-fluoro-2′-hydroxy-[1,1′:3′,1″-terphenyl]-3-carboxamide] | > 100
11 | CC(=O)Nc1ccc(-c2cccc(-c3cnc(-c4ccccc4)o3)c2O)cc1F [Example 85, N-(3-Fluoro-2′-hydroxy-3′-(2-phenyloxazol-5-yl)-[1,1′-biphenyl]-4-yl)acetamide] | > 100
12 | COc1ccc(-c2cccc(-c3ccc(NC(C)=O)c(F)c3)c2O)cn1 [Example 98, N-(3-Fluoro-2′-hydroxy-3′-(6-methoxypyridin-3-yl)-[1,1′-biphenyl]-4-yl)acetamide] | 10 to 100
13 | CC(=O)Nc1ccc(-c2cccc(-c3ccc(F)cc3)c2O)cc1F [Example 59, N-(3,4″-Difluoro-2′-hydroxy-[1,1′:3′,1″-terphenyl]-4-yl)acetamide] | > 100
14 | CC(=O)Nc1ccc(-c2cccc(-c3cc(N4CCNCC4)no3)c2O)cc1OC(F)(F)F [Example 25, N-(2′-hydroxy-3′-(3-(piperazin-1-yl)isoxazol-5-yl)-3-(trifluoromethoxy)-[1,1′-biphenyl]-4-yl)acetamide] | > 100
15 | CC(=O)Nc1ccc(-c2cccc(-c3cccc(C)c3)c2O)cc1F [Example 55, N-(3-fluoro-2′-hydroxy-3″-methyl-[1,1′:3′,1″-terphenyl]-4-yl)acetamide] | > 100
16 | CC(=O)Nc1ccc(-c2cccc(-c3ccc(NC(C)=O)nc3)c2O)cn1 [Example 40, N,N′-(5,5′-(2-Hydroxy-1,3-phenylene)bis(pyridine-5,2-diyl))diacetamide] | > 100

Second part, the molecule after the results:

Row | IC50 [nM] | Structure (SMILES)
17 | > 100 | CC(=O)Nc1ccc(-c2cccc(-c3cccc(N4CCC(CN)CC4)c3)c2O)cc1F [Example 186, N-(3″-(4-(aminomethyl)piperidin-1-yl)-3-fluoro-2′-hydroxy-[1,1′:3′,1″-terphenyl]-4-yl)acetamide]
18 | 10 to 100 | CC(=O)Nc1ccc(-c2cccc(-c3ccc(NC(C)=O)c(F)c3)c2O)cc1 [Example 99, N,N′-(3-Fluoro-2′-hydroxy-[1,1′:3′,1″-terphenyl]-4,4″-diyl)diacetamide]
19 | > 100 | CC(=O)Nc1ccc(-c2cccc(-c3cc(N4CCNCC4)[nH]n3)c2O)cc1F [Example 162, N-(3-fluoro-2′-hydroxy-3′-(5-(piperazin-1-yl)-1H-pyrazol-3-yl)-[1,1′-biphenyl]-4-yl)acetamide ditrifluoroacetate]
20 | 10 to 100 | CC(=O)Nc1ccc(-c2cccc(-c3cccc(N4CCC5(CCNC5)CC4)c3)c2O)cc1F [Example 192, N-(3-fluoro-2′-hydroxy-3″-(2,8-diazaspiro[4.5]decan-8-yl)-[1,1′:3′,1″-terphenyl]-4-yl)acetamide]
21 | 1 to 10 | CC(=O)Nc1ccc(-c2cccc(-c3ccnc(C(=O)O)c3)c2O)cc1F [Example 205, 4-(4′-acetamido-3′-fluoro-2-hydroxy-[1,1′-biphenyl]-3-yl)picolinic acid]
22 | > 100 | CNC(=O)Nc1ccc(-c2cccc(-c3cc(N4CCNCC4)no3)c2O)cc1 [Example 149, 1-(2′-hydroxy-3′-(3-(piperazin-1-yl)isoxazol-5-yl)-[1,1′-biphenyl]-4-yl)-3-methylurea]
23 | 10 to 100 | CC(=O)Nc1ccc(-c2cccc(-c3cccc(N4CCC5(CC4)CNC5)c3)c2O)cc1F [Example 196, N-(3-fluoro-2′-hydroxy-3″-(2,7-diazaspiro[3.5]nonan-7-yl)-[1,1′:3′,1″-terphenyl]-4-yl)acetamide]
24 | 10 to 100 | CC(=O)Nc1ccc(-c2cccc(-c3ccc4c(c3)CNC(=O)N4)c2O)cc1F [Example 155, N-(3-fluoro-2′-hydroxy-3′-(2-oxo-1,2,3,4-tetrahydroquinazolin-6-yl)-[1,1′-biphenyl]-4-yl)acetamide]
25 | 1 to 10 | CC(=O)Nc1ccc(-c2cccc(-c3cccc(-c4ccnc(N)c4)c3)c2O)cc1F [Example 204, N-(3″-(2-aminopyridin-4-yl)-3-fluoro-2′-hydroxy-[1,1′:3′,1″-terphenyl]-4-yl)acetamide]
26 | > 100 | CC(=O)Nc1ccc(-c2cc(F)cc(-c3cnn(C4CCN(C)CC4)c3)c2O)cc1 [Example 134, N-(5′-fluoro-2′-hydroxy-3′-(1-(1-methylpiperidin-4-yl)-1H-pyrazol-4-yl)-[1,1′-biphenyl]-4-yl)acetamide]
27 | > 100 | CC(=O)Nc1ccc(-c2cccc(-c3ccc4c(c3)CCCO4)c2O)cc1F [Example 136, N-(3′-(chroman-6-yl)-3-fluoro-2′-hydroxy-[1,1′-biphenyl]-4-yl)acetamide]
28 | 10 to 100 | CC(=O)Nc1ccc(-c2cccc(-c3ccc4cnccc4c3)c2O)cc1F [Example 145, N-(3-fluoro-2′-hydroxy-3′-(isoquinolin-6-yl)-[1,1′-biphenyl]-4-yl)acetamide]
29 | > 100 | CC(=O)Nc1ccc(-c2cccc(-c3cccc(-c4cn[nH]n4)c3)c2O)cc1F [Example 243, N-(3-fluoro-2′-hydroxy-3″-(2H-1,2,3-triazol-4-yl)-[1,1′:3′,1″-terphenyl]-4-yl)acetamide]
30 | > 100 | CC(=O)Nc1ccc(-c2cccc(-c3ccc4c(c3)CCN4)c2O)cc1F [Example 137, N-(3-fluoro-2′-hydroxy-3′-(indolin-5-yl)-[1,1′-biphenyl]-4-yl)acetamide]
31 | 10 to 100 | CC(=O)Nc1ccc(-c2cccc(-c3cccc(N4CC5CCC4CN5)c3)c2O)cc1F (centres unmarked) [Example 174, N-(3″-(2,5-diazabicyclo[2.2.2]octan-2-yl)-3-fluoro-2′-hydroxy-[1,1′:3′,1″-terphenyl]-4-yl)acetamide]
32 | 10 to 100 | CCN1CCN(c2cc(-c3cccc(-c4ccc(NC(C)=O)c(F)c4)c3O)on2)CC1 [Example 151, N-(3′-(3-(4-ethylpiperazin-1-yl)isoxazol-5-yl)-3-fluoro-2′-hydroxy-[1,1′-biphenyl]-4-yl)acetamide]
33 | > 100 | CC(=O)Nc1ccc(-c2cccc(-c3cnc4[nH]ccc4c3)c2O)cc1F [Example 124, N-(3-fluoro-2′-hydroxy-3′-(1H-pyrrolo[2,3-b]pyridin-5-yl)-[1,1′-biphenyl]-4-yl)acetamide]
34 | > 100 | CC(=O)Nc1ccc(-c2cccc(-c3ccc4c(c3)CCCN4C(C)=O)c2O)cc1F [Example 101, N-(3′-(1-Acetyl-1,2,3,4-tetrahydroquinolin-6-yl)-3-fluoro-2′-hydroxy-[1,1′-biphenyl]-4-yl)acetamide]
35 | > 100 | CC(=O)Nc1ccc(-c2cccc(-c3cccc(N4CCCCC4)c3)c2O)cc1F [Example 166, N-(3-fluoro-2′-hydroxy-3″-(piperidin-1-yl)-[1,1′:3′,1″-terphenyl]-4-yl)acetamide]
